In general, IC50 refers to the concentration that gives 50% inhibition.

Molecules are shown by their SMILES. A value given as a limit tells only on which side of the number the result lay.

Consider 17 compounds from patent US20250145625A1, “PYRAZOLOPYRIMIDINE DERIVATIVE AND ANTICANCER PHARMACEUTICAL COMPOSITION CONTAINING SAME AS ACTIVE INGREDIENT” (KOREA RESEARCH INSTITUTE OF CHEMICAL TECHNOLOGY, priority 2021, published 2025).

In test [1] the test system is MDA-MB-231 triple negative breast cancer cell line. As to the kind of experiment: Cytotoxicity in TTK-expressed MDA-MB-231 cells. Particulars: Homo sapiens, MDA-MB-231, 120 h, 5 days. It is filed as cell-based. Here is the method:
To determine the cytotoxicity of a compound represented by Chemical Formula 1 according to the present invention to MDA-MB-231 cells, the following test was conducted.
MDA-MB-231 triple negative breast cancer cell line purchased from ATCC was inoculated into each well of a 96-well plate at a volume of 90 μL containing 2,000 cells. Thereafter, an example compound of the present invention was added to respective wells at concentrations of 10 μM, 3 μM, 1 μM, 0.3 μM, 0.1 μM, and 0 μM, and the cells were cultured in a cell incubator at 37° C. for 5 days. Five days later, 10 μL of Cyto X solution (manufacturer: LPS Solution) was added to each of the wells, and the absorbance was measured at 450 nm using an Epoch microplate spectrophotometer (manufacturer: BioTek Instruments Inc.) according to the product's user guide. For cytotoxicity, the IC50 value for cytotoxicity of each compound was calculated by quantifying the number of cells using the measured value.

Test [2] concerns the target recombinant human TTK protein (Homo sapiens (Human), UniProt P33981). As to the kind of experiment: Evaluation of TTK activity inhibitory ability (scintillation counting).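 Further: reaction stopped with 0.5% phosphoric acid, spotted on P30 filter, TTK activity counted by scintillation, uninhibited no-compound wells taken as 100% control.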 It is filed as biochemical. The settings on record: TTK inhibitory activity; read-out: IC50.
Procedure: To determine the ability of a compound represented by Chemical Formula 1 according to the present invention to inhibit TTK activity, the following experiment was conducted.
After that, the reaction was terminated by adding phosphoric acid to a concentration of 0.5%, and 10 of the reaction solution was dropped onto a P30 filter. […] The activity of TTK was measured through scintillation counting. The activity value from the group with no compound was set as 100% of control, and the degree of TTK inhibition by the compound was calculated.
The test system of test [3] is HCT116 colon cancer cell line. Briefly: Cytotoxicity in TTK-expressed HCT116 cells. The class given is cell-based. The settings on record: Homo sapiens, HCT-116, 120 h, 5 days. Here is the method:
To determine the cytotoxicity of a compound represented by Chemical Formula 1 according to the present invention to HCT116 cells, the following test was conducted.
HCT116 colon cancer cell line purchased from ATCC was inoculated into each well of a 96-well plate at a volume of 90 μL containing 2,000 cells. Thereafter, an example compound of the present invention was added to respective wells at concentrations of […], 3 μM, 1 μM, 0.3 μM, 0.1 μM, and 0 μM, and the cells were cultured in a cell incubator at 37° C. for 5 days. After 5 days, the number of cells was measured by CCK8 test method, and the cytotoxicity was determined by calculating the IC50 value for cytotoxicity of each compound.

recombinant human TTK protein, sequence (P33981 whole entry): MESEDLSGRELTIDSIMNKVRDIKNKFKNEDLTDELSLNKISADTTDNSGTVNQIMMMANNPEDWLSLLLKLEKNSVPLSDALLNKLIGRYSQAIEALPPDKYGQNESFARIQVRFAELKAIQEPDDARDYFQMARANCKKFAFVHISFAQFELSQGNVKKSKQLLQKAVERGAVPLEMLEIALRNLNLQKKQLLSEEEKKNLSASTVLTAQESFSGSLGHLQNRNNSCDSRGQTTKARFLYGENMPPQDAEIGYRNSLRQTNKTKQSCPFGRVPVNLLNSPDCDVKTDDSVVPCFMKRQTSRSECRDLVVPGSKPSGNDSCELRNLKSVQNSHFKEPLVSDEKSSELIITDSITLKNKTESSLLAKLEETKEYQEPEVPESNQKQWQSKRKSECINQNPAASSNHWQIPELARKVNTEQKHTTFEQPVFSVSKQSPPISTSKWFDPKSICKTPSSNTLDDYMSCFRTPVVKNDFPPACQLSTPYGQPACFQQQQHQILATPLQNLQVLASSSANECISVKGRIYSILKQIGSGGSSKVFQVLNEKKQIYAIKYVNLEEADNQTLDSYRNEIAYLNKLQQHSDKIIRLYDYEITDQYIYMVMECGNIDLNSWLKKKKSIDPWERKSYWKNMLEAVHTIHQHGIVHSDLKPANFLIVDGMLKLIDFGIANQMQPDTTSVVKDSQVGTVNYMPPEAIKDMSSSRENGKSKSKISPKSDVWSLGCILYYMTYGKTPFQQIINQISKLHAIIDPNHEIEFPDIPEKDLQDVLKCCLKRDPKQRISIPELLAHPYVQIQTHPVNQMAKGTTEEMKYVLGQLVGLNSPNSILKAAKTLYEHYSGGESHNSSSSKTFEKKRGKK

In the case of `COc1cc(N2CCOCC2)ccc1Nc1nc(Nc2ccccc2)c2c(-c3cnn(C)c3)n[nH]c2n1` [Compound 26-2, N^6-(2-methoxy-4-morpholinophenyl)-3-(1-methyl-1H-pyrazol-4-yl)-N^4-phenyl-1H-pyrazolo[3,4-d]pyrimidine-4,6-diamine], the IC50 was above 1000 nM in test [1], below 30 nM in test [2] and above 1000 nM in test [3].
Take `COc1cc(N2CCOCC2)ccc1Nc1nc(NC2CCCCC2)c2c(-c3cn(C)nn3)n[nH]c2n1` [Compound 21-2, N^4-cyclohexyl-N^6-(2-methoxy-4-morpholinophenyl)-3-(1-methyl-1H-1,2,3-triazol-4-yl)-1H-pyrazolo[3,4-d]pyrimidine-4,6-diamine]: the 50% inhibitory concentration (IC50) was below 150 nM in test [1], below 30 nM in test [2] and below 150 nM in test [3].
With `COc1cc(N2CCOCC2)ccc1Nc1nc(NC2CCCCC2)c2c(-c3cnn(C)c3)n[nH]c2n1` [Compound 8-7, N^4-cyclohexyl-N^6-(2-methoxy-4-morpholinophenyl)-3-(1-methyl-1H-pyrazol-4-yl)-1H-pyrazolo[3,4-d]pyrimidine-4,6-diamine], the values for the IC50 in test [1], in test [2] and in test [3] were 150 to 500 nM, 100 to 300 nM and 500 to 1000 nM, respectively.
For `COc1cc(N2CCOCC2)ccc1Nc1nc(NC2CCCCC2)c2c(-c3cnc[nH]3)n[nH]c2n1` [Compound 18-2, N^4-cyclohexyl-3-(1H-imidazol-5-yl)-N^6-(2-methoxy-4-morpholinophenyl)-1H-pyrazolo[3,4-d]pyrimidine-4,6-diamine], in that order: 500 to 1000 nM, 30 to 100 nM and 500 to 1000 nM.
In the case of `COc1cc(N2CCOCC2)ccc1Nc1nc(NC2CCOCC2)c2c(-c3cnn(C)c3)n[nH]c2n1` [Compound 8-23, N^6-(2-methoxy-4-morpholinophenyl)-3-(1-methyl-1H-pyrazol-4-yl)-N^4-(tetrahydro-2H-pyran-4-yl)-1H-pyrazolo[3,4-d]pyrimidine-4,6-diamine], the half-inhibitory concentration (IC50) was 500 to 1000 nM in test [1], below 30 nM in test [2] and 150 to 500 nM in test [3].
For the compound `CC(C)Oc1cc(N2CCOCC2)ccc1Nc1nc(NC2CCCCC2)c2c(-c3cnn(C)c3)n[nH]c2n1` [Compound 26-1, N^4-cyclohexyl-N^6-(2-isopropoxy-4-morpholinophenyl)-3-(1-methyl-1H-pyrazol-4-yl)-1H-pyrazolo[3,4-d]pyrimidine-4,6-diamine], the values for the concentration for half-maximal inhibition (IC50) in test [1], in test [2] and in test [3] were 150 to 500 nM, 30 to 100 nM and 500 to 1000 nM, respectively.
For `COc1cc(-c2nncn2C)ccc1Nc1nc(NC2CCCCC2)c2c(-c3cnn(C)c3)n[nH]c2n1` [Compound 11-2, N^4-cyclohexyl-N^6-(2-methoxy-4-(4-methyl-4H-1,2,4-triazol-3-yl)phenyl)-3-(1-methyl-1H-pyrazol-4-yl)-1H-pyrazolo[3,4-d]pyrimidine-4,6-diamine], in that order: below 150 nM, below 30 nM and below 150 nM.
As for `COc1cc(N2CCOCC2)ccc1Nc1nc(NC2CCOCC2)c2c(-c3cnn(C(F)F)c3)n[nH]c2n1` [Compound 8-24, 3-(1-(difluoromethyl)-1H-pyrazol-4-yl)-N^6-(2-methoxy-4-morpholinophenyl)-N^4-(tetrahydro-2H-pyran-4-yl)-1H-pyrazolo[3,4-d]pyrimidine-4,6-diamine], the results for the IC50 in test [1], in test [2] and in test [3] were 150 to 500 nM, below 30 nM and 150 to 500 nM, respectively.
Turning to `COc1cc(N2CCOCC2)ccc1Nc1nc(NC2CCCCC2)c2c(-c3cn(C)cn3)n[nH]c2n1` [Compound 8-19, N^4-cyclohexyl-N^6-(2-methoxy-4-morpholinophenyl)-3-(1-methyl-1H-imidazol-4-yl)-1H-pyrazolo[3,4-d]pyrimidine-4,6-diamine], the values for the half-maximal inhibitory concentration (IC50) in test [1], in test [2] and in test [3] were 150 to 500 nM, 30 to 100 nM and 500 to 1000 nM, respectively.
`COc1cc(N2CCOCC2)ccc1Nc1nc(NC2CCOCC2)c2c(-c3cccnc3)n[nH]c2n1` [Compound 8-27, N^6-(2-methoxy-4-morpholinophenyl)-3-(pyridin-3-yl)-N^4-(tetrahydro-2H-pyran-4-yl)-1H-pyrazolo[3,4-d]pyrimidine-4,6-diamine]: the results for the half-inhibitory concentration (IC50) in test [1], in test [2] and in test [3] were 500 to 1000 nM, below 30 nM and 500 to 1000 nM, respectively.
`COc1cc(N2CCOCC2)ccc1Nc1nc(NC2CCOCC2)c2c(-c3ccncc3)n[nH]c2n1` [Compound 8-28, N^6-(2-methoxy-4-morpholinophenyl)-3-(pyridin-4-yl)-N^4-(tetrahydro-2H-pyran-4-yl)-1H-pyrazolo[3,4-d]pyrimidine-4,6-diamine]: the results for the 50% inhibitory concentration (IC50) in test [1], in test [2] and in test [3] were 150 to 500 nM, below 30 nM and 150 to 500 nM, respectively.
Consider `COc1cc(N2CCOCC2)ccc1Nc1nc(NC2CCCCC2)c2c(-c3ccn(C)n3)n[nH]c2n1` [Compound 8-13, N^4-cyclohexyl-N^6-(2-methoxy-4-morpholinophenyl)-3-(1-methyl-1H-pyrazol-3-yl)-1H-pyrazolo[3,4-d]pyrimidine-4,6-diamine], for which the figures for the IC50 in test [1], in test [2] and in test [3] were 500 to 1000 nM, below 30 nM and 500 to 1000 nM, respectively.
On to `COc1cc(C(=O)N2CCOCC2)ccc1Nc1nc(NC2CCCCC2)c2c(-c3cnn(C)c3)n[nH]c2n1` [Compound 11-4, (4-((4-(cyclohexylamino)-3-(1-methyl-1H-pyrazol-4-yl)-1H-pyrazolo[3,4-d]pyrimidin-6-yl)amino)-3-methoxyphenyl)(morpholino)methanone], for which the values for the IC50 in test [1], in test [2] and in test [3] were 150 to 500 nM, below 30 nM and 150 to 500 nM, respectively.
As to `COc1cc(N2CCOCC2)ccc1Nc1nc(NC2CCCCC2)c2c(-c3n[nH]c(=O)o3)n[nH]c2n1` [Compound 14-3, 5-(4-(cyclohexylamino)-6-((2-methoxy-4-morpholinophenyl)amino)-1H-pyrazolo[3,4-d]pyrimidin-3-yl)-1,3,4-oxadiazol-2(3H)-one], the IC50 in test [1] is 150 to 500 nM; in test [2], 30 to 100 nM; in test [3], below 150 nM.
Regarding `COc1cc(N2CCOCC2)ccc1Nc1nc(NC2CCCCC2)c2c(-c3nncn3C)n[nH]c2n1` [Compound 14-1, N^4-cyclohexyl-N^6-(2-methoxy-4-morpholinophenyl)-3-(4-methyl-4H-1,2,4-triazol-3-yl)-1H-pyrazolo[3,4-d]pyrimidine-4,6-diamine], the values for the IC50 in test [1], in test [2] and in test [3] were below 150 nM, 30 to 100 nM and 150 to 500 nM, respectively.
`COc1cc(N2CCOCC2)ccc1Nc1nc(NC2CCOCC2)c2c(-c3cnco3)n[nH]c2n1` [Compound 33-1, N^6-(2-methoxy-4-morpholinophenyl)-3-(oxazol-5-yl)-N^4-(tetrahydro-2H-pyran-4-yl)-1H-pyrazolo[3,4-d]pyrimidine-4,6-diamine]: the IC50 in test [1] is below 150 nM; in test [2], below 30 nM; in test [3], below 150 nM.
For `COc1cc(N2CCOCC2)ccc1Nc1nc(NC2CCCCC2)c2c(-c3cccc(NS(C)(=O)=O)c3)n[nH]c2n1` [Compound 8-6, N-(3-(4-(cyclohexylamino)-6-((2-methoxy-4-morpholinophenyl)amino)-1H-pyrazolo[3,4-d]pyrimidin-3-yl)phenyl)methanesulfonamide], the IC50 in test [1] is above 1000 nM; in test [2] it was 30 to 100 nM; in test [3] it was above 1000 nM.
